According to ChEMBL document CHEMBL1125639, “Synthesis and resolution of (+-)-7-chloro-8-hydroxy-1-(3'-iodophenyl)-3-methyl-2,3,4,5-tetrahydro- 1H-3- benzazepine (TISCH): a high affinity and selective iodinated ligand for CNS D1 dopamine receptor” (J Med Chem, 1991):

Species: Rattus norvegicus
Format: functional, Striatum, Membrane
Description: Inhibition constant of compound on R-(+)-125[I]-8 radioligand binding to rat striatal membranes

| SMILES | Ki [nM] |
| --- | --- |
| CN1CCc2cc(Cl)c(O)cc2C(c2cccc(I)c2)C1 (racemic) | 1.07 |
| NCCc1ccc(O)c(O)c1 [DOPAMINE] | > 3000 |
| C=CCN1CC[C@]23c4c5ccc(O)c4O[C@H]2C(=O)CC[C@@]3(O)[C@H]1C5 [NALOXONE] | > 6000 |
| CN1CCc2cc(Cl)c(O)cc2[C@@H](c2ccccc2)C1 [SCH-23390] | 0.28 |
| NCCc1c[nH]c2ccc(O)cc12 [SEROTONIN] | > 5000 |
